# Experimental data published in article PMC9374667 (Communications Biology, 2022).
# Where “and” joins values, the source holds several entries; their conditions need not be identical. Equal values may be shown once.
# Columns and labels:
# [1] = molecular target: T1, TBK1 (Mus musculus, UniProt Q9WUN2); assay: TBK1 activity assay in eWAT; assay type: in vivo, mice; parameters: The adipose tissue was ultrasound-crushed in PBS buffer solution (1:9 w/v) to prepare the tissue homogenate; from tissue; host or cells: epididymal white adipose tissue (eWAT) and brown adipose tissue (BAT) of C57BLKS WT and db/db mice; conditions: for the expression of TBK1 in eWAT of db/db mice: Figure 6c, individual values
# T1 sequence (Q9WUN2 1-729): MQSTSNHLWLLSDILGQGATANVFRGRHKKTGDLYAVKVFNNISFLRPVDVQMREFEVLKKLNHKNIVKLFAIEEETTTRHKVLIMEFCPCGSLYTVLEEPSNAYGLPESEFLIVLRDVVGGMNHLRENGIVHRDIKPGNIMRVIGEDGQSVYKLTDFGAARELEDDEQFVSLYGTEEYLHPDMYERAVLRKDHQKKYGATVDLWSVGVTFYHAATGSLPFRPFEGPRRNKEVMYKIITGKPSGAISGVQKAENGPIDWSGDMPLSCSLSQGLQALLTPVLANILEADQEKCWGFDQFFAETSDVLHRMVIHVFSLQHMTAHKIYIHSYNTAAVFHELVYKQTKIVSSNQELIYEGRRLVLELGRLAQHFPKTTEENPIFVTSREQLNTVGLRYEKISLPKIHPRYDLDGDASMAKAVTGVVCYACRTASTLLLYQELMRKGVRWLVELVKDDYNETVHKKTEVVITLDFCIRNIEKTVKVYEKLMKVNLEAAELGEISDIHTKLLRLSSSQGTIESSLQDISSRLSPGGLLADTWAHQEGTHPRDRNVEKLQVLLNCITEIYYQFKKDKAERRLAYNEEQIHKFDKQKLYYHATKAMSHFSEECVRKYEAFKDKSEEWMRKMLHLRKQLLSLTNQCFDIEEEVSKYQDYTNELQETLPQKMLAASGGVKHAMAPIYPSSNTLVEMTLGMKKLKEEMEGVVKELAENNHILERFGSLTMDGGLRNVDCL
# Description: The adipose tissue was ultrasound-crushed in PBS buffer solution (1:9 w/v) to prepare the tissue homogenate. The tissue homogenate was centrifuged at 5000 × g for 10 min, and the supernatant was taken for detection. Briefly, samples or standards were added to the microplates pre-coated with IKKε antibody or TBK1 antibody. Then horseradish peroxidase (HRP) labeled antibody was added and incubated at 37 °C for 60 min. After thorough washing, the 3,3′,5,5′-tetramethylbenzidine (TMB) substrate was used for color development, and the absorbance (OD value) was determined at 450 nm.
# [2] = molecular target: T2, IKKε (Mus musculus, UniProt Q9R0T8); assay: IKKε kinase activity in TNF-α induced 3T3-L1 adipocytes; assay type: cell-based, Murine; parameters: endogenous in cells; host or cells: differentiated 3T3-L1 adipocytes; IKKε kinase activity: unit not given here; conditions: for IKKε kinase activity: Figure 7h, replicates
# T2 sequence (Q9R0T8 1-717): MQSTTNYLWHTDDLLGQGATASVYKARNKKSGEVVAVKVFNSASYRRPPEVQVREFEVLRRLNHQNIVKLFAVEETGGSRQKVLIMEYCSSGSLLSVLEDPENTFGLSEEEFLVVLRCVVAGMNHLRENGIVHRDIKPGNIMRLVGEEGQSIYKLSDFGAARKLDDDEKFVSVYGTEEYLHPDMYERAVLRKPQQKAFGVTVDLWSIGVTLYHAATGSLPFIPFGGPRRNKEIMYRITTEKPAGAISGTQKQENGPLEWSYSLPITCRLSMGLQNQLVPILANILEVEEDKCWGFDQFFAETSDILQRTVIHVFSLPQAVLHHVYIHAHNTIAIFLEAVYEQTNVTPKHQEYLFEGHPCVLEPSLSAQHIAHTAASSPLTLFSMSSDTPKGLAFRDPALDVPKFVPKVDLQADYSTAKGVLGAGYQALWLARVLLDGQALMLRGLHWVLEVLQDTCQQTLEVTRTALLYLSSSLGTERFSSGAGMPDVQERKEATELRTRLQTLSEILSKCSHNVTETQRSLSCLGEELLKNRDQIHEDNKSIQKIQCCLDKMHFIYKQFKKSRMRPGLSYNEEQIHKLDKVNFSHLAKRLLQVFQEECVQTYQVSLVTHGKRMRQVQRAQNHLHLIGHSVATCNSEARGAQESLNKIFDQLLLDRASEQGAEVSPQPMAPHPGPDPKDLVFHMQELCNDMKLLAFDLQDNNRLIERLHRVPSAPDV
compound,measurement,setting,value
"CC(C)Cc1ccc(C(C)C(=O)[O-])cc1.COc1ccc2cc3[n+](cc2c1OC)CCc1cc2c(cc1-3)OCO2.O.O.O.O [BJ, berberine-ibuprofen]",the expression of TBK1 in eWAT of db/db mice,[1]; db/db+BJ 75mg/kg,0.538 U/g and 0.576 U/g and 0.532 U/g and 0.587 U/g and 0.53 U/g
same,the expression of TBK1 in eWAT of db/db mice,[1]; db/db+BJ 150mg/kg,0.413 U/g and 0.391 U/g and 0.35 U/g and 0.361 U/g and 0.451 U/g and 0.379 U/g
same,TBK1 kinase activity in eWAT,"[1]; db/db mice, both doses of BJ (75 and 150 mg/kg)",significantly reduced
same,IKKε kinase activity,[2]; TNF-α(50ng/ml)+3μM BJ,47.3662 and 40.5834 and 38.8273 and 37.402 and 43.0522 and 46.31
same,IKKε kinase activity,[2]; TNF-α(50ng/ml)+10μM BJ,22.5765 and 26.127 and 25.2998 and 23.4546 and 23.7218 and 26.8142
same,IKKε expression level / kinase activity,"[2]; TNF-α induced 3T3-L1 adipocytes, BJ treatment for 24 h",markedly decreased
